From patent US9909104B2, “Generating definitive endoderm and pancreatic progenitor cells” (The J. David Gladstone Institutes, a testamentary trust …, priority 2013, dated 2018)

How the values were obtained:
[1] = tested on: Dox-inducible secondary mouse embryonic fibroblasts (MEFs); experiment: Direct reprogramming of secondary MEFs into definitive endoderm-like cells (Sox17/Foxa2); assay type: cell-based; settings: 1 μM Bix-01294 D0-D6; 280 μM pVc D0-D12
Description: Dox-inducible secondary mouse embryonic fibroblasts (MEFs) (cells at passage 3-4 were regularly used) were plated on Matrigel-coated culture dishes at a cell density of 1×10^4 cells/cm^2. Cells were cultured in MEF medium (Dulbecco's modified Eagle's medium with 10% fetal bovine serum and 2 mM Glutamax) for an additional day. The medium was then changed to Med I (Knock-out DMEM with 10% knock-out serum replacer, 5% FBS, 2 mM Glutamax, 0.1 mM non-essential amino acids (NEAA), and 0.055 mM β-mercaptoethanol) supplemented with 4 μg/ml Dox, 50 ng/ml Activin A and 1 mM LiCl for the indicated time. […] All reagents were purchased from Invitrogen if not specified, and all cytokines were from R&D Systems. […]
Total RNA was extracted using the RNeasy Plus Mini Kit in combination with QIAshredder (Qiagen). […] Expression of pluripotency and lineage-specific marker genes was analyzed by real-time PCR with iQ SYBR Green Supermix (Bio-Rad). […]
To test this hypothesis, conditions were evaluated in which definitive endoderm induction factors (Activin/Li) were added to fibroblasts either after (Approach-I) or during (Approach II) iPSC factor expression, using Sox17 and Foxa2 expression as a measure of DELC induction (FIG. 1A).

[2] = tested on: definitive endoderm-like cells (DELCs); experiment: Induction of DELCs into Pdx1+/Nkx6.1+ pancreatic progenitor-like cells (step III); assay type: cell-based, mouse; settings: screen of 400 compounds, confirmed in larger-well cultures
Description: At the end of treatment, lineage specific markers were analyzed by immunostaining and/or real-time PCR.
Primary antibodies used were Sox17 (R&D), Foxa2 (Millipore), Pdx1 (R&D), Hnf6 (Santa Cruz), Pax6 (Covance), Sox9 (Santa Cruz), Nkx6.1 (Developmental Studies Hybridoma Bank), Insulin (Dako), Glucagon (Sigma), Somatostatin (Abcam), Amylase (Abcam), and CK19 (Abcam). Nuclei were visualized by DAPI (Sigma-Aldrich) staining Images were captured using a Nikon Eclipse TE2000-U microscope.
An available drug collection of 400 compounds in the 48-well format was screened to identity small molecules that induce high percentages of Pdx1^+/Nkx6.1^+ cells in DELC populations. Med-III medium (DMEM supplemented with 1×B27, 2 mM Glutamax) was used as the basal condition and double staining of Pdx1 and Nkx6.1 at 4 days post-induction was used as the readout.
Induction of Pdx1 and Nkx6.1 expression by small molecules is referred herein to the “third step” (step III) of pancreatic induction.

secondary MEF cells = experiment: Small molecules in first/second reprogramming steps, Pdx1/Nkx6.1 double staining on day 16; assay type: cell-based, mouse; settings: 1 μM Bix-01294 D0 to D6; 280 μM pVc D0 to D12; readout day 16
Description: The inventors then hypothesized that overlapping lineage-specific patterning conditions based on small molecules with early reprogramming would enhance pancreatic induction. To this end, further screens of the inventors' drug collection were performed during the first- and second-step inductions, with double staining of Pdx1 and Nkx6.1 at the end of the third step (day 16) as a readout. […] In particular, 1 μM Bix-01294 (a G9a histone methyltransferase inhibitor), when added from D0 to D6, and 280 μM pVc, when added from D0 to D12, increased the number of Pdx1+/Nkx6.1+ colonies to about 3 fold and 4 fold respectively (FIG. 4D-4E).

[3] = tested on: pancreatic progenitor-like cells (PPLCs); experiment: Maturation of PPLCs into pancreatic-like cells (step IV, day 25); assay type: cell-based, mouse; settings: 5 μM SB203580 or 280 μM pVc used individually, D16-D25, day 25
Description: The pancreatic progenitor-like cells generated as described herein were treated with Med-IV medium containing laminin, nicotinamide, and B27 etc. as previously reported (Schroeder et al., 2006) to determine whether those PPLCs can be further differentiated into mature pancreatic like cells. After 9 days of culture in this medium, a small population (about 0.5%) of insulin and C-peptide double-positive cells was detected.
To improve efficiency of pancreatic maturation, the inventors' drug collection was further screened in a “fourth” step (step IV) to identify compounds that increase the percentage of cells that express insulin and Pdx1 on day 25.

[4] = tested on: HDAC activity in HeLa extracts; settings: read-out: IC50 for inhibition of HDAC activity; cited from earlier work
cPE cells = experiment: Maturation of cPE cells into C-peptide positive beta-like cells in vitro; assay type: cell-based, human; settings: supplemented individually to basal pancreatic differentiation media
Excerpt: Full maturation towards glucose responsive cells is optimally illustrated by transplantation of in vitro differentiated pancreas endoderm progenitor cells into immune compromised mice. […] While C-peptide positive cells expressing high levels of PDX1 were consistently observed after 10-14 days in culture (FIG. 11B), the relatively low number of cells (˜0.5%) indicated further optimization of conditions may improve the frequency of conversion to functional beta-like cells. Chemical compounds able to promote differentiation of definitive endoderm (Borowiak et al. (2009)) and PDX1^+ progenitors (Chen et al. (2009) have been identified previously. However, molecules directing the final steps of differentiation into beta-like cells have not been uncovered, likely due to difficulties in generating and maintaining sufficient numbers of differentiation-competent pancreatic endodermal progenitor cells.
A chemical screen was performed with the intent of identifying factors that would result in the more efficient development of C-peptide positive cells from expanded cPE cells.

[5] = tested on: histone deacetylases (HDACs); settings: isoform not stated; read-out: IC50 (histone deacetylase); cited from earlier work
γ-secretase = settings: total β-amyloid; cited from earlier work
presenilase activity = settings: At higher concentrations (20-4000/1); cited from earlier work
SAPK2/p38 = SAPK2/p38 (Homo sapiens, UniProt Q16539); settings: CK1 and ALK5 inhibitor; cited from earlier work
[6] = tested on: Human foreskin fibroblasts; experiment: Conversion of human fibroblasts into definitive endodermal progenitor (cDE) colonies

Chain of SAPK2/p38 (Q16539 whole entry): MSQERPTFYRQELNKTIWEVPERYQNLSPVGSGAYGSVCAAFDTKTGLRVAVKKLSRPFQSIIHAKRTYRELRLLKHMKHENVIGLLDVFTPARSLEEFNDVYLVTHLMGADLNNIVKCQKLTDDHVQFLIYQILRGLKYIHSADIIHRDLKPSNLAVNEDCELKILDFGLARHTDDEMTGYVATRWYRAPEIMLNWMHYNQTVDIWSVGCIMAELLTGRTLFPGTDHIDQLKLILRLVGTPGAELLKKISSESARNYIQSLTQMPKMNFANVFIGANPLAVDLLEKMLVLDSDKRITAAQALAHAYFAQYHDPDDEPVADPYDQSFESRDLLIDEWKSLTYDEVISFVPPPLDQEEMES

Q: Which “numbers of Sox17 and Foxa2 single positive and double positive cells” value [1] does the source give for “2-phospho-L-ascorbic acid trisodium salt [pVc]” here?
A: no significant influence

Q: And the “hit confirmation: increase of Pdx1 and/or Nkx6.1 expression” value (“hit confirmation: increase” below) [2]?
A: Confirmed hits

Q: And the “number of Pdx1+/Nkx6.1+ colonies” value (secondary MEF cells)?
A: ~4 fold

Q: And the “number of insulin+/Pdx1+ double-positive cells” value [3]?
A: significantly increased

Q: With `Cc1cccc(-c2nn(C(=S)Nc3ccccc3)cc2-c2ccnc3ccccc23)n1` [A83-01, 3-(6-Methyl-2-pyridinyl)-N-phenyl-4-(4-quinolinyl)-1H-pyrazole-1-carbothioamide] as the molecule, how does the “hit confirmation: increase” value [2] read?
A: Confirmed hits

Q: Which IC50 [4] does the source give for `Nc1ccccc1NC(=O)CCCCCCC(=O)Nc1ccccc1` [BML-210, N1-(2-aminophenyl)-N8-phenyl-octanediamide] here?
A: ~80000 nM

Q: For `COC(=O)C1=C(C)NC(C)=C([N+](=O)[O-])C1c1ccccc1C(F)(F)F` (stereo not drawn) [BayK-8644, 3-pyridinecarboxylic acid, 1,4-dihydro-2,6-dimethyl-5-nitro-4-(2-(trifluoromethyl)phenyl), methyl ester], which “effect on percentage of C-peptide positive cells” value (“effect on percentage” below) (cPE cells) is on record?
A: effective in increasing

Q: With `COc1cc2nc(N3CCCN(C)CC3)nc(NC3CCN(Cc4ccccc4)CC3)c2cc1OC` [Bix-01294] as the molecule, how does the “numbers of Sox17 and Foxa2 single positive and double positive cells” value [1] read?
A: no significant influence

Q: What about the “number of Pdx1+/Nkx6.1+ colonies” value (secondary MEF cells) of the same molecule?
A: about 3 fold

Q: With `CC1(C)NC(=O)C(CCCCCC(=O)[C@H]2CO2)NC(=O)C2CCCN2C(=O)[C@@H](Cc2ccccc2)NC1=O` (stereo partly drawn) [Chlamydocin, (3R)-3-benzyl-6,6-dimethyl-9-[6-[(2R)-oxiran-2-yl]-6-oxohexyl]-1,4,7,10-tetrazabicyclo[10.3.0]pentadecane-2,5,8,11-tetrone] as the molecule, how does the IC50 [5] read?
A: ~0.15 nM

Q: For `C[C@H](NC(=O)Cc1cc(F)cc(F)c1)C(=O)N[C@H]1N=C(c2ccccc2)c2ccccc2N(C)C1=O` [Compound E], which “effect on percentage” value (cPE cells) is on record?
A: effective in increasing

Q: What about the IC50 (γ-secretase) of the same molecule?
A: 0.3 nM

Q: What about the “effect on presenilase activity” value (presenilase activity) of the same molecule?
A: only weakly affects

Q: With `NC(=O)c1ccc(-c2nc(-c3ccc4c(c3)OCCO4)c(-c3ccccn3)[nH]2)cc1` [D 4476, 4-[4-(2,3-Dihydro-1,4-benzodioxin-6-yl)-5-(2-pyridinyl)-IH-imidazol-2-yl]benzamide] as the molecule, how does the “selectivity over SAPK2/p38” value (SAPK2/p38) read?
A: greater than 20 fold

Q: With `CC1NC(=O)C(C)NC(=O)C2CCCN2C(=O)C(CCCCCCC(=O)C2CO2)NC1=O` [HC Toxin, (6R,9S,14aR)-3,6R-dimethyl-9S-(7-((S)-oxiran-2-yl)-7-oxoheptyl)decahydropyrrolo[1,2-a][1,4,7,10]tetraazacyclododecine-1,4,7,10-tetranone] as the molecule, how does the IC50 [5] read?
A: 30 nM

Q: For `Cc1c(C(=O)Nc2ccc(N3C[C@@H](C)O[C@@H](C)C3)nc2)cccc1-c1ccc(OC(F)(F)F)cc1` [LDE225], which “hit confirmation: increase” value [2] is on record?
A: Confirmed hits

Q: For `Nc1ccccc1NC(=O)c1ccc(CNc2nccc(-c3cccnc3)n2)cc1` [MGCD0103, N-(2-aminophenyl)-4-[[(4-pyridin-3-ylpyrimidin-2-yl)amino]methyl]benzamide], which IC50 [5] is on record?
A: ~100 nM

Q: Which IC50 [5] does the source give for `Nc1ccccc1NC(=O)c1ccc(CNC(=O)OCc2cccnc2)cc1` [MS-27-275, pyridin-3-ylmethyl-N-[[4-[(2-aminophenyl)carbamoyl]phenyl]methyl]carbamate] here?
A: 100 to 1000 nM

Q: For `CCNC(=O)[C@H]1O[C@@H](n2cnc3c(N)ncnc32)C(O)C1O` (stereo partly drawn) [NECA, 5′-N-ethylcarboxamidoadenosine], which “further increase of conversion rate over improved condition (NaB, Par, RG)” value ([6]; FOXA2 positive colonies day 28) is on record?
A: 2 fold

Q: What about the “increase over the basal protocol” value ([6]; NECA together with NaB, Par, RG108) of the same molecule?
A: 5 fold

Q: What about the “FOXA2 and SOX17 double-positive cDE colonies from 400,000 human fibroblasts” value ([6]; optimized condition (NaB, Par, RG108, NECA)) of the same molecule?
A: approximately fifty

Q: For `C[S+]([O-])c1ccc(-c2nc(-c3ccc(F)cc3)c(-c3ccncc3)[nH]2)cc1` (stereo not drawn) [SB203580, 4-(4-fluorophenyl)-2-(4-methylsulfinylphenyl)-5-(4-pyridyl)-1H-imidazole], which “number of insulin+/Pdx1+ double-positive cells” value [3] is on record?
A: significantly increased

Q: With `CC(/C=C/C(=O)NO)=C\[C@@H](C)C(=O)c1ccc(N(C)C)cc1` [Trichostatin A, (R,2E,4E)-6-(4-(dimethylamino)benzoyl)-N-hydroxy-4-methylhepta-2,4-dienamide] as the molecule, how does the IC50 [5] read?
A: ~1.8 nM

Q: With `O=C1O[C@H]([C@@H](O)CO)C(O)=C1O` [Vitamin C] as the molecule, how does the “effect on percentage” value (cPE cells) read?
A: effective in increasing
